Measured values published in ChEMBL document CHEMBL1201862, “PubChem BioAssay data set” (2004).
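Where inhibition never reached the appropriate level, the endpoint shown equals the highest concentration tested. Otherwise, values were interpolated linearly from a five-concentration, 48-hour dose response in 96-well plates. GI50 marks 50% less growth.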 The source made the active and inactive calls. No stated cut-off is given here; in the data, active = GI50 up to about 1.1 µM and inactive = higher.

Key:
Test in all cases: inhibition of tumour cell growth, NCI panel, 48 h
TK-10 = system: TK-10
UO-31 = system: UO-31
SR = system: SR
LOX IMVI = system: LOX IMVI
MOLT-4 = system: MOLT-4
SNB-75 = system: SNB-75
OVCAR-4 = system: OVCAR-4
COLO 205 = system: COLO 205
OVCAR-5 = system: OVCAR-5
HOP-62 = system: HOP-62
Malme-3M = system: Malme-3M
HCT-116 = system: HCT-116
SK-MEL-5 = system: SK-MEL-5
UACC-62 = system: UACC-62
KM12 = system: KM12
CAKI-1 = system: CAKI-1
RXF 393 = system: RXF 393
SK-MEL-28 = system: SK-MEL-28
SW-620 = system: SW-620
NCI-H226 = system: NCI-H226

Structure (SMILES)	GI50 (TK-10)	GI50 (UO-31)	GI50 (SR)	GI50 (LOX IMVI)	GI50 (MOLT-4)	GI50 (SNB-75)	GI50 (OVCAR-4)	GI50 (COLO 205)	GI50 (OVCAR-5)	GI50 (HOP-62)	GI50 (Malme-3M)	GI50 (HCT-116)	GI50 (SK-MEL-5)	GI50 (UACC-62)	GI50 (KM12)	GI50 (CAKI-1)	GI50 (RXF 393)	GI50 (SK-MEL-28)	GI50 (SW-620)	GI50 (NCI-H226)
O=C(CCc1ccc(O)cc1)NCCc1cccc(O)c1	> 50 µM (inactive)	> 50 µM (inactive)	> 50 µM (inactive)	> 50 µM (inactive)	> 50 µM (inactive)	0.005 µM (active)	> 50 µM (inactive)	> 50 µM (inactive)	> 50 µM (inactive)	> 50 µM (inactive)	> 50 µM (inactive)	> 50 µM (inactive)	> 50 µM (inactive)	> 50 µM (inactive)	> 50 µM (inactive)	> 50 µM (inactive)	> 50 µM (inactive)	> 50 µM (inactive)		
COc1ccc(Nc2cnc3cc(N)ccc3n2)cc1OC	> 100 µM (inactive)	> 100 µM (inactive)	33.7 µM (inactive)	37.1 µM (inactive)	36.5 µM (inactive)	> 100 µM (inactive)		> 100 µM (inactive)	> 100 µM (inactive)	61.1 µM (inactive)	> 100 µM (inactive)	86.1 µM (inactive)	49.9 µM (inactive)	72.3 µM (inactive)	70.5 µM (inactive)		> 100 µM (inactive)	> 100 µM (inactive)	> 100 µM (inactive)	53.8 µM (inactive)
CC(C)=CCC/C(C)=C/CC/C(C)=C/C(O)c1ccccc1 (stereo unspecified)	29.1 µM (inactive)	21 µM (inactive)	20.7 µM (inactive)	19.6 µM (inactive)			> 10 µM (inactive)	18.5 µM (inactive)	18.3 µM (inactive)	19.1 µM (inactive)	19.2 µM (inactive)	17.9 µM (inactive)	16.6 µM (inactive)	17 µM (inactive)	23.6 µM (inactive)	> 10 µM (inactive)			20.2 µM (inactive)	30.1 µM (inactive)
CC1SC2=NC3=C(c4ccccc4C3=O)C(c3ccccc3Cl)N2C1=O (stereo unspecified)	> 100 µM (inactive)	> 100 µM (inactive)		> 100 µM (inactive)	75 µM (inactive)	63 µM (inactive)	86.1 µM (inactive)	> 100 µM (inactive)	> 100 µM (inactive)	> 100 µM (inactive)	> 100 µM (inactive)	> 100 µM (inactive)	> 100 µM (inactive)	80.2 µM (inactive)	> 100 µM (inactive)	> 100 µM (inactive)		> 100 µM (inactive)	> 100 µM (inactive)	> 100 µM (inactive)
COc1ccc(-c2cc(N3CCN(c4ccccc4)CC3)c(C#N)c(=O)o2)cc1	22.4 µM (inactive)	13.2 µM (inactive)	> 100 µM (inactive)	30.5 µM (inactive)	> 100 µM (inactive)	7.41 µM (inactive)	4.59 µM (inactive)	> 100 µM (inactive)	> 100 µM (inactive)		19.4 µM (inactive)	62.8 µM (inactive)	36.4 µM (inactive)		> 100 µM (inactive)	16.7 µM (inactive)	13.7 µM (inactive)	15.6 µM (inactive)	42 µM (inactive)	7.74 µM (inactive)
CC(C)OP(=O)(OC(C)C)/C(F)=N/Nc1ccc([N+](=O)[O-])cc1	> 100 µM (inactive)	> 100 µM (inactive)	> 100 µM (inactive)		> 100 µM (inactive)	38.7 µM (inactive)	> 100 µM (inactive)	> 100 µM (inactive)	> 100 µM (inactive)	> 100 µM (inactive)	> 100 µM (inactive)	> 100 µM (inactive)	> 100 µM (inactive)	> 100 µM (inactive)	91.2 µM (inactive)	> 100 µM (inactive)		> 100 µM (inactive)	> 100 µM (inactive)	
Cc1c2ccncc2c(C)c2c1[nH]c1ccc(OCCN(C)C)cc12		0.641 µM (active)		0.063 µM (active)	0.0193 µM (active)	0.47 µM (active)	0.135 µM (active)	0.357 µM (active)	0.433 µM (active)	0.671 µM (active)	1.16 µM (inactive)	0.0455 µM (active)	1.35 µM (inactive)	0.729 µM (active)	0.105 µM (active)	0.463 µM (active)	0.265 µM (active)	0.577 µM (active)	0.0353 µM (active)	0.365 µM (active)
CC[n+]1c(-c2ccccc2)c2cc(N)ccc2c2ccc(N)cc21 [HOMIDIUM BROMIDE]	8.36 µM (inactive)				2.36 µM (inactive)	0.0372 µM (active)	4.44 µM (inactive)	1.68 µM (inactive)	15.4 µM (inactive)			3.62 µM (inactive)	1.2 µM (inactive)		2.49 µM (inactive)	16.9 µM (inactive)	5.68 µM (inactive)	2.05 µM (inactive)	3.67 µM (inactive)	
CCc1ccc2nc(-c3ccc(O)cc3)sc2c1	17.9 µM (inactive)	11.8 µM (inactive)		16.3 µM (inactive)	13.6 µM (inactive)			15.3 µM (inactive)	15.3 µM (inactive)		17.3 µM (inactive)	16.7 µM (inactive)	17.8 µM (inactive)	12.4 µM (inactive)	14.3 µM (inactive)	12.4 µM (inactive)			20.6 µM (inactive)	13.2 µM (inactive)
O=C(O)C(SC(=S)c1ccc(C(=S)SC(C(=O)O)c2ccccc2)cc1)c1ccccc1 (stereo unspecified)	> 100 µM (inactive)	92.7 µM (inactive)	> 100 µM (inactive)	50.6 µM (inactive)	> 100 µM (inactive)	35 µM (inactive)			> 100 µM (inactive)	> 100 µM (inactive)	> 100 µM (inactive)	> 100 µM (inactive)	> 100 µM (inactive)	47.3 µM (inactive)	> 100 µM (inactive)		> 100 µM (inactive)	99.3 µM (inactive)	> 100 µM (inactive)	55.5 µM (inactive)
C1CCCCc2nc3c(nc2CCC1)c1nc2c(nc1c1nc4c(nc31)CCCCCCCC4)CCCCCCCC2	> 100 µM (inactive)	> 100 µM (inactive)	> 100 µM (inactive)	> 100 µM (inactive)	> 100 µM (inactive)	> 100 µM (inactive)		> 100 µM (inactive)	> 100 µM (inactive)	82.6 µM (inactive)	> 100 µM (inactive)	> 100 µM (inactive)		> 100 µM (inactive)	> 100 µM (inactive)	> 10 µM (inactive)		> 100 µM (inactive)	> 100 µM (inactive)	
c1ccc(COc2cccc3ccc[n+](Cc4ccccc4)c23)cc1	12.1 µM (inactive)	25.8 µM (inactive)			5.35 µM (inactive)	5.2 µM (inactive)	3.6 µM (inactive)	6.44 µM (inactive)	1.92 µM (inactive)	12 µM (inactive)	4.23 µM (inactive)			4.6 µM (inactive)	3.41 µM (inactive)		8.75 µM (inactive)	3.85 µM (inactive)	9.75 µM (inactive)	3.31 µM (inactive)
Nc1ccc(S(=O)(=O)c2ccc(NCN3C(=O)NC(=O)C(=O)C3=O)cc2)cc1 [ALLANTODAPSONE]	> 100 µM (inactive)	> 100 µM (inactive)	> 100 µM (inactive)	> 100 µM (inactive)	> 100 µM (inactive)		> 100 µM (inactive)		> 100 µM (inactive)	> 100 µM (inactive)	> 100 µM (inactive)	> 100 µM (inactive)	> 100 µM (inactive)	> 100 µM (inactive)	> 100 µM (inactive)	> 100 µM (inactive)	> 100 µM (inactive)	> 100 µM (inactive)	> 100 µM (inactive)	> 100 µM (inactive)
CCOC(=O)c1c(Cl)nc2ccccc2c1N=[N+]=[N-]	31.9 µM (inactive)	18.7 µM (inactive)	32.7 µM (inactive)	20.5 µM (inactive)	24.2 µM (inactive)		16.9 µM (inactive)	21.5 µM (inactive)	19.3 µM (inactive)	49.3 µM (inactive)	34.8 µM (inactive)	20.7 µM (inactive)	44.5 µM (inactive)		16.2 µM (inactive)	20.2 µM (inactive)	44.6 µM (inactive)	52.4 µM (inactive)	19.5 µM (inactive)	32.1 µM (inactive)
COC1(O)c2cccc(Cl)c2C(=O)N1C1(C(N)=O)CCCCC1 (stereo unspecified)		> 100 µM (inactive)		> 100 µM (inactive)	> 100 µM (inactive)	> 100 µM (inactive)	> 100 µM (inactive)	> 100 µM (inactive)	> 100 µM (inactive)	> 100 µM (inactive)	> 100 µM (inactive)	> 100 µM (inactive)	> 100 µM (inactive)	> 100 µM (inactive)	> 100 µM (inactive)	> 100 µM (inactive)	> 100 µM (inactive)	> 100 µM (inactive)	> 100 µM (inactive)	> 100 µM (inactive)
O=C1CC(=O)NC(NN2C(=O)/C(=C/c3ccc(Cl)c(Cl)c3)N=C2c2ccccc2)=N1	41.9 µM (inactive)	29.6 µM (inactive)	11.7 µM (inactive)		15.2 µM (inactive)	24 µM (inactive)	49.3 µM (inactive)	18.8 µM (inactive)	46.7 µM (inactive)	23.9 µM (inactive)	34.8 µM (inactive)	17.7 µM (inactive)	16.3 µM (inactive)	15.7 µM (inactive)	16.4 µM (inactive)	85.3 µM (inactive)	24.8 µM (inactive)	28.8 µM (inactive)	30.4 µM (inactive)	32.1 µM (inactive)
